Five compounds from ChEMBL document CHEMBL1126537, “Synthesis and biological activity of sulfoximine-modified myristic acid analogues” (Bioorg Med Chem Lett, 1993) can be followed below.

Structures are written as SMILES. pIC50: −log10 of the molar value.

For one assay, the species on record is Mus musculus. Put plainly: Percentage control against LPS stimulated IL-1-alpha formation in murine peritoneal macrophages was measured by IL-1-alpha ELISA. The assay is classed as functional. Details: concentration or dose not given beside the values. A general note: In an ELISA, binding on a coated surface is turned into a signal by an enzyme label.
`CCCCCCCCCCCCC[S+](=N)([O-])CCC` (stereo not given) displayed a Control of 206%.

Turning to `C/C=C/C/C=C/CCC(=O)[C@H]1O[C@H]1C(N)=O` [CERULENIN], the Control is listed as 170%.

For the compound `CCCCCCCCCCCCC[S+](=N)([O-])Cc1ccccc1` (stereo not given), the Control worked out at 326%.

Compound `CCCCCCCCCCCCC[S+](=N)([O-])CC(=O)OCC` (stereo not given) yielded a Control of 190%.

`CCCCCCCCCCCCC[S+](C)(=N)[O-]` (stereo not given) had a Control of 123%.

A further assay relates to Moloney murine leukemia virus. Put plainly: Compound was tested for its antagonistic activity against Moloney leukemia virus (MoLV) replication. The assay is classed as functional, organism-based.
The pIC50 is the negative decadic logarithm of the IC50, by convention in mol/L. `CCCCCCCCCCCCC[S+](=N)([O-])CCC` (stereo not given): the pIC50 is 5.00.

For the compound `C/C=C/C/C=C/CCC(=O)[C@H]1O[C@H]1C(N)=O` [CERULENIN], the pIC50 is 5.57.

As to `CCCCCCCCCCCCC[S+](=N)([O-])Cc1ccccc1` (stereo not given), the pIC50 was 4.82.

For `CCCCCCCCCCCCC[S+](=N)([O-])CC(=O)OCC` (stereo not given), the pIC50 was 4.62.

`CCCCCCCCCCCCC[S+](C)(=N)[O-]` (stereo not given) had a pIC50 of 5.30.
